Measured values taken from patent US20160346249A1 (priority 2012, published 2016).

How the values were obtained:
[1] = In vitro metabolism in human hepatocytes; conditions: male, human, hepatocytes, 4 h, 87 μM
Description: Cryopreserved human hepatocytes (male) that are prepared by XenoTech, LLC (Lenexa, Kans.), are thawed on the day of use and resuspended in Waymouth's incubation media. The enzymatic activity of hepatocytes is monitored using 7-ethoxycoumarin and 7-hydroxycoumarin as substrates. […] The incubations are carried out for 4 hours with 1×10^6 viable cells/ml. […] At 0 and 4 hour, cell suspensions are extracted using two volumes of ice cold methanol. After centrifugation, the extracts are stored at −20° C. until further sample processing. The solvent in the samples are dried under a stream of nitrogen, and resuspended in methanol:water (1:1) before analysis.
The extracts of the 4 hour incubation mixture are analyzed by liquid chromatography/electrospray ionization-mass spectrometry (LC/ESI-MS) in the positive and negative ion modes to screen for possible metabolites. HPLC Methods 1 and 2 are used to find potential metabolites, and the HPLC and mass spectrometry systems are described in Table 56. The same instrumentation and methods in HPLC Method 1 are used in HPLC Method 2 with the exception that the mobile phases and gradient are changed to 0.4% HCOOH in H2O for mobile A and CH3OH for mobile phase B. The mass spectrometer is LCQ™ Ion Trap Mass Spectrometer and is in either the positive or negative electrospray mode with the ion spray set at 4.5 kV. The capillary temperature is 250° C., the nitrogen sheath gas flow rate is ˜80 unit, the auxiliary nitrogen gas flow rate is 20 unit, and the collision gas is helium.

[2] = 13-week mouse toxicity and toxicokinetic study; conditions: in vivo; for AUC(0-t): AUC0-24
Description: For toxicology assessment ten mice of each gender were placed in each group.
Ophthalmic examinations were performed during Weeks −1 and 12.

[3] = 12-month dog toxicity and toxicokinetic study; format: in vivo; conditions: for Cmax / Tmax / AUC(0-t): beagle, dog, plasma, po; for AUC(0-t): read-out: AUC0-24; for body weight lower than control: Week 52
Description: Blood samples were collected on Days 0, 91, 181, 268 and 358 from up to 4 animals/gender/group. Plasma samples collected on Days 91, 181, 268, as well as all plasma samples collected from the control group were not evaluated.
For toxicology assessment four dogs of each gender were included in each group. Assessments included clinical observations, body weight, and food consumption measures which were recorded periodically during the study. Ophthalmic examinations were performed during Weeks 1, 12, 25, 38, 51, and 55 (recovery period). Electrocardiograms were recorded during Weeks 2, 12, 25, 38, and 51. Clinical pathology evaluations (hematology, serum chemistry, and urinalysis) were performed during Weeks 1, 12, 25, 38, 52, and 56 (recovery period). At termination, complete necropsies were performed on all dogs and selected organs were weighed. Selected tissues from the control and 20 (15) mg/kg/day group animals and animals euthanized in extremis were examined microscopically. Sections of livers from dogs in the control and 20 (15) mg/kg/day groups were collected at both the primary and 4-week post-treatment recovery necropsies for assessment of drug metabolism enzyme (microsomal cytochrome P450) activity.

[4] = 2-week rat toxicology and toxicokinetic study; format: in vivo; conditions: for Cmax / Tmax / AUC(0-t): po; for AUC(0-t): read-out: AUC0-24
[5] = female, Crl:CD-1(ICR) BR, po, 10 mg/kg/day
[6] = female, Crl:CD-1(ICR) BR, po, 30 mg/kg/day
[7] = female, Crl:CD-1(ICR) BR, po, 100 mg/kg/day
[8] = male, Crl:CD-1(ICR) BR, po, 10 mg/kg/day
[9] = male, Crl:CD-1(ICR) BR, po, 30 mg/kg/day
[10] = male, Crl:CD-1(ICR) BR, po, 100 mg/kg/day
[11] = female, 2 mg/kg/day, females, 2 mg/kg/day, Day 0
[12] = female, 2 mg/kg/day, females, 2 mg/kg/day, Day 358
[13] = female, 6 mg/kg/day, females, 6 mg/kg/day, Day 0
[14] = female, 6 mg/kg/day, females, 6 mg/kg/day, Day 358
[15] = female, 15 mg/kg/day, females, 20 (15) mg/kg/day, Day 358
[16] = female, 20 mg/kg/day, females, 20 (15) mg/kg/day, Day 0
[17] = male, 2 mg/kg/day, males, 2 mg/kg/day, Day 0
[18] = male, 2 mg/kg/day, males, 2 mg/kg/day, Day 358
[19] = male, 6 mg/kg/day, males, 6 mg/kg/day, Day 0
[20] = male, 6 mg/kg/day, males, 6 mg/kg/day, Day 358
[21] = male, 15 mg/kg/day, males, 20 (15) mg/kg/day, Day 358
[22] = male, 20 mg/kg/day, males, 20 (15) mg/kg/day, Day 0
[23] = female, Crl:CD (SD)IGS BR, rat, in vivo, 10 mg/kg/day, females, 10 mg/kg/day, Day 0
[24] = female, Crl:CD (SD)IGS BR, rat, in vivo, 10 mg/kg/day, females, 10 mg/kg/day, Day 13
[25] = female, Crl:CD (SD)IGS BR, rat, in vivo, 20 mg/kg/day, females, 20 mg/kg/day, Day 0
[26] = female, Crl:CD (SD)IGS BR, rat, in vivo, 20 mg/kg/day, females, 20 mg/kg/day, Day 13
[27] = female, Crl:CD (SD)IGS BR, rat, in vivo, 40 mg/kg/day, females, 40 mg/kg/day, Day 0
[28] = female, Crl:CD (SD)IGS BR, rat, in vivo, 40 mg/kg/day, females, 40 mg/kg/day, Day 13
[29] = male, Crl:CD (SD)IGS BR, rat, in vivo, 10 mg/kg/day, males, 10 mg/kg/day, Day 13
[30] = male, Crl:CD (SD)IGS BR, rat, in vivo, 20 mg/kg/day, males, 20 mg/kg/day, Day 0
[31] = male, Crl:CD (SD)IGS BR, rat, in vivo, 20 mg/kg/day, males, 20 mg/kg/day, Day 13
[32] = male, Crl:CD (SD)IGS BR, rat, in vivo, 40 mg/kg/day, males, 40 mg/kg/day, Day 0
[33] = male, Crl:CD (SD)IGS BR, rat, in vivo, 40 mg/kg/day, males, 40 mg/kg/day, Day 13
[34] = male, Crl:CD(SD)IGS BR, rat, in vivo, 10 mg/kg/day, males, 10 mg/kg/day, Day 0

For `Clc1ccc([C@]23CNC[C@H]2C3)cc1Cl` [amitifadine, (+)-1-(3,4-dichlorophenyl)-3-azabicyclo[3.1.0]hexane], the “remains unchanged after 4 hour incubation” value [1] was 82.4%, the NOAEL at 13 weeks ([2]; both sexes, Crl:CD-1(ICR) BR, oral, 13 weeks) was 30 mg/kg/day and the MTD at 13 weeks ([2]; both sexes, Crl:CD-1(ICR) BR, po) was 100 mg/kg/day. For the same molecule, the “anovulatory status (females affected)” value ([2]; female, Crl:CD-1(ICR) BR, 100 mg/kg/day, 13 weeks) was 5/10, the AUC0-24 [2, 5] was 1980 ng·h/mL and the AUC(0-t) [2, 5] was 2540 ng·h/mL. It also gave a Cmax [2, 5] of 296 ng/mL, a Tmax [2, 5] of 1 h and an AUC0-24 [2, 6] of 7629 ng·h/mL. For the same molecule, the AUC(0-t) [2, 6] was 7120 ng·h/mL, the Cmax [2, 6] was 972 ng/mL and the Tmax [2, 6] was 2 h. For the same molecule, the AUC0-24 [2, 7] was 17431 ng·h/mL, the AUC(0-t) [2, 7] was 20000 ng·h/mL and the Cmax [2, 7] was 2450 ng/mL. For the same molecule, the Tmax [2, 7] was 1 h, the ovary/oviduct weights lower ([2]; 100 mg/kg/day) was 23-28% and the AUC0-24 [2, 8] was 2141 ng·h/mL. The AUC(0-t) [2, 8] was 2050 ng·h/mL, the Cmax [2, 8] was 288 ng/mL and the Tmax [2, 8] was 1 h. It also gave an AUC0-24 [2, 9] of 6659 ng·h/mL, an AUC(0-t) [2, 9] of 7290 ng·h/mL and a Cmax [2, 9] of 704 ng/mL. It also gave a Tmax [2, 9] of 1 h, an AUC0-24 [2, 10] of 28952 ng·h/mL and an AUC(0-t) [2, 10] of 24100 ng·h/mL. It also gave a Cmax [2, 10] of 2850 ng/mL, a Tmax [2, 10] of 1 h and a Cmax [3, 11] of 615 ng/mL. It also gave a Tmax [3, 11] of 1 h, an AUC(0-t) [3, 11] of 1580 ng·h/mL and a Cmax [3, 12] of 1150 ng/mL. It also gave a Tmax [3, 12] of 1 h, an AUC(0-t) [3, 12] of 3990 ng·h/mL and a Cmax [3, 13] of 3680 ng/mL. For the same molecule, the Tmax [3, 13] was 1.3 h, the AUC(0-t) [3, 13] was 10800 ng·h/mL and the Cmax [3, 14] was 2420 ng/mL. It also gave a Tmax [3, 14] of 1 h, an AUC(0-t) [3, 14] of 11100 ng·h/mL and a Cmax [3, 15] of 5800 ng/mL. For the same molecule, the Tmax [3, 15] was 1.2 h, the AUC(0-t) [3, 15] was 19600 ng·h/mL and the Cmax [3, 16] was 6880 ng/mL. The Tmax [3, 16] was 1 h, the AUC(0-t) [3, 16] was 24100 ng·h/mL and the “body weight lower than control” value ([3]; females, 6 mg/kg/day) was 12%. For the same molecule, the “body weight lower than control” value ([3]; females, 20 (15) mg/kg/day) was 14%, the Cmax [3, 17] was 1040 ng/mL and the Tmax [3, 17] was 1.3 h. It also gave an AUC(0-t) [3, 17] of 2130 ng·h/mL, a Cmax [3, 18] of 844 ng/mL and a Tmax [3, 18] of 1 h. For the same molecule, the AUC(0-t) [3, 18] was 2220 ng·h/mL, the Cmax [3, 19] was 3250 ng/mL and the Tmax [3, 19] was 1.3 h. For the same molecule, the AUC(0-t) [3, 19] was 10500 ng·h/mL, the Cmax [3, 20] was 2780 ng/mL and the Tmax [3, 20] was 1.3 h. For the same molecule, the AUC(0-t) [3, 20] was 15800 ng·h/mL, the Cmax [3, 21] was 4830 ng/mL and the Tmax [3, 21] was 1.2 h. For the same molecule, the AUC(0-t) [3, 21] was 18100 ng·h/mL, the Cmax [3, 22] was 7980 ng/mL and the Tmax [3, 22] was 1 h. The AUC(0-t) [3, 22] was 29600 ng·h/mL, the “body weight lower than control” value ([3]; males, 6 mg/kg/day) was 5% and the “body weight lower than control” value ([3]; males, 20 (15) mg/kg/day) was 15%. For the same molecule, the NOAEL at 14 days ([4]; both sexes, Crl:CD(SD)IGS BR, rat, in vivo, oral gavage, 14 days, read-out: NOAEL for systemic toxicity) was 40 mg/kg/day, the Cmax [4, 23] was 1830 ng/mL and the Tmax [4, 23] was 2 h. It also gave an AUC(0-t) [4, 23] of 11600 ng·h/mL, a Cmax [4, 24] of 1150 ng/mL and a Tmax [4, 24] of 2 h. The AUC(0-t) [4, 24] was 8190 ng·h/mL, the Cmax [4, 25] was 2800 ng/mL and the Tmax [4, 25] was 1 h. It also gave an AUC(0-t) [4, 25] of 28600 ng·h/mL, a Cmax [4, 26] of 2300 ng/mL and a Tmax [4, 26] of 1 h. The AUC(0-t) [4, 26] was 22000 ng·h/mL, the Cmax [4, 27] was 4440 ng/mL and the Tmax [4, 27] was 4 h. The AUC(0-t) [4, 27] was 50600 ng·h/mL, the Cmax [4, 28] was 3100 ng/mL and the Tmax [4, 28] was 2 h. The AUC(0-t) [4, 28] was 32900 ng·h/mL, the “increase in mean absolute liver weight” value ([4]; females, 40 mg/kg/day) was 18% and the Cmax [4, 29] was 878 ng/mL. The Tmax [4, 29] was 2 h, the AUC(0-t) [4, 29] was 6310 ng·h/mL and the Cmax [4, 30] was 3000 ng/mL. It also gave a Tmax [4, 30] of 1 h, an AUC(0-t) [4, 30] of 17400 ng·h/mL and a Tmax [4, 31] of 2 h. For the same molecule, the AUC(0-t) [4, 31] was 13000 ng·h/mL, the Cmax [4, 32] was 3040 ng/mL and the Tmax [4, 32] was 1 h. For the same molecule, the AUC(0-t) [4, 32] was 34800 ng·h/mL, the Cmax [4, 33] was 2730 ng/mL and the Tmax [4, 33] was 1 h. It also gave an AUC(0-t) [4, 33] of 25600 ng·h/mL, a Tmax [4, 34] of 1 h and an AUC(0-t) [4, 34] of 7880 ng·h/mL. The “increase in mean absolute liver weight” value ([4]; males, 40 mg/kg/day) was 20%.
